Reference: US7868135B2, “Compositions of lipopeptide antibiotic derivatives and methods of use thereof” (priority 2003, dated 2011)
Starred links: 1 amine or outer side, 2 acyl side, 3 side chain; linkers in the order of their positions; H or OH if unused. Positions of bridges follow the written chain, without caps; N, C: chain ends. Non-standard residues stand in square brackets, D forms with d. Residues, ends and D or L forms follow the SMILES beside them. ξ: configuration not given here. *: point of attachment. ξAbu(βξ-NH2) = CC(N[*:3])C(N[*:1])C(=O)[*:2]; ξAsp(βξ-Me) = CC(C(=O)O)C(N)C(=O)O; X2 = O=C(CCc1ccc(N[*:1])cc1)[*:2]; X1 = O=C(Cc1ccc(N[*:1])cc1)[*:2]; ξAbu(3ξ-NH2) = CC(N)C(N)C(=O)O; Lauroyl = CCCCCCCCCCCC(=O)*; Pip = O=C(O)[CH]1CCCCN1

Legend:
[1] = In vivo half-life after single i.v. administration, mice; settings: female, Swiss CD1, mouse, plasma, iv, 10 mg/kg
Procedure: (§1) Yet other exemplary in vivo models can be used to characterize the pharmacokinetics and pharmacodynamic parameters of antimicrobial compounds of this disclosure. Some parameters that can be measured include an in vivo half-life of a compound, elimination rate and clearance, volume of distribution, and bioavailability. For example, briefly, compounds can be administered as a single i.v. or oral (p.o.) dose in mice or rats. At various time points (ranging from 1 minute to 72 hours), blood from treated animals is collected and the concentration of lipopeptide derivative in the ex vivo plasma can be quantified by, for example, liquid chromatography with mass spectrometric detection (LC/MS). After quantification, pharmacokinetics parameters can be calculated using methods known in the art, such as a one compartment model with mono-exponential decay and linear regression analysis (see, e.g., Fantin et al., Antimicrob. Agents Chemotherap. 35: 1413. 1991).
(§2) A pharmacokinetic parameter that can be measured, and which aids in determining efficacy, after a single i.v. administration of an antimicrobial lipopeptide derivative of the instant disclosure is the systemic half-life of the compound. Briefly, test compounds were dissolved in a 5% mannitol solution (pH was then adjusted) to a concentration of 1 mg/mL (w/v). A single intravenous injection in the lateral caudal vein of Swiss CD1 mice (5 to 6 weeks old, female) or Sprague Dawley rats (male) was used to administer the lipopeptide derivative at a final dose of 10 mg/kg. At various time points (ranging from about 4 minutes to about 24 hours for mice, and 48 or 72 hours for rats) mice were sacrificed and blood was harvested. The concentration of lipopeptide derivative in ex vivo plasma was quantified using liquid chromatography (LC) with mass spectrometric detection (MS).

[2] = system: S. aureus Smith (SAU0017, ATCC 19636); assay: Intraperitoneal murine model of protection against infection (ED50, Table 21); assay type: in vivo, Staphylococcus aureus; settings: Swiss CD1 mice infected i.p., compound i.v.
Description: (§3) A variety of in vivo models may be used to assess the antimicrobial properties of lipopeptide derivative compounds of this disclosure. For example, antimicrobial compounds of the instant disclosure may be tested for efficacy by measuring a compound's ability to protect a mouse against a microbial infection, such as an infection or disease caused by or related to Gram-positive bacteria, including Staphylococcus aureus, Streptococcus pneumoniae, and Enterococcus faecalis. […] A certain period after infection, mice are then individually treated, for example intravenously (i.v.), with a lipopeptide derivative of this disclosure.
(§4) Antimicrobial lipopeptide derivatives of the instant invention were tested for antimicrobial activity against Gram-positive bacteria in an intraperitoneal (i.p.) murine model (i.e., bacteria were injected i.p. and lipopeptide compounds were administered intravenously (i.v.)). Mice were infected with Staphylococcus aureus, Streptococcus pneumoniae, or Enterococcus faecalis, which were prepared as follows: S. aureus Smith (SAU0017, ATCC 19636) were grown in culture overnight on trypticase soy broth, harvested and then resuspended in fresh media containing 5% mucin (Sigma Chemical Co.); S. pneumoniae (SPN 0032, ATCC 10813) were grown overnight on blood agar plates and re-suspended in 0.9% sterile saline; and E. faecalis EFS0040 (clinical isolate) were grown overnight in culture on blood heart infusion broth, washed and resuspended in 0.9% saline and mixed with equal volume of sterile fecal rat extract. Swiss CD1 mice were each infected i.p. with bacteria at the following doses: S. aureus at 10^6 CFU/mouse; S. pneumoniae at 10^2 CFU/mouse; or E. faecalis at 10^7.5 CFU/mouse. […] The ED50 for each compound was calculated using the method of Reed and Meunch (Am. J. Hyg. 27: 493, 1938).

[3] = system: S. pneumoniae (SPN 0032, ATCC 10813); assay: as above; assay type: in vivo, Streptococcus pneumoniae; settings: Swiss CD1 mice infected i.p., compound i.v.
Description: as §3, §4

[4] = Acute toxicity, maximum tolerated dose (MTD); settings: Swiss CD1, mouse, in vivo, iv
Procedure: Another measure of toxicity is the maximum tolerated dose (MTD), which is determined as a dose level that is not accompanied by mortality or life-threatening toxicity. The dose ratio between toxic and therapeutic effect is the therapeutic index. […] The data obtained from these cell culture assays and animal studies can be used in formulating a dosage range that is not toxic for use in human subjects. […] The dosage may vary within this range depending upon the dosage form employed and the route of administration utilized. The exact formulation, route of administration and dosage can be chosen by the individual physician in view of the patient's condition or need thereof (see, e.g., Fingl et al., 1975, In: The Pharmacological Basis of Therapeutics, Chapter 1).
For example, to examine acute toxicity, lipopeptide antibiotics of the invention can be tested in an animal model, such as Swiss CD1 mice, to determine the MTD. In certain embodiments, the animals used to test toxicity of a particular compound can be approximately 5-6 weeks old at the start of the experiment and weigh 22-26 g. The lipopeptides may be administered intravenously (i.v.) into, for example, the caudal tail vein at dose levels that range from about 50 to about 500 mg/kg, or from about 75 to about 250 mg/kg, or from about 100 to about 200 mg/kg, or at a dose range at or below 100 mg/kg. The animals are generally observed immediately after administration, 1-2 hours post administration, 5-8 hours post administration, and once daily thereafter. Observations include both the activity level of the mouse as well as any physical side effects from the administered dose. The animal weight is recorded on day 0 (immediately before dosing) and on day 7.

[5] = system: E. faecalis EFS0040 (clinical isolate); assay: Intraperitoneal murine model of protection against infection (ED50, Table 21); assay type: in vivo, Enterococcus faecalis; settings: Swiss CD1 mice infected i.p., compound i.v.
Description: as §3, §4

[6] = system: Staphylococcus aureus (MSSA); settings: 24 h
Procedure, shortened: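 Broth microdilution MIC per NCCLS M7-A6 with doubling serial dilutions, in cation-adjusted Mueller-Hinton broth supplemented with 0.625 mM calcium.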

in vivo = settings: male, Sprague Dawley, rat, plasma, iv, 10 mg/kg
Procedure: as §1, §2

Staphylococcus aureus = assay type: cell-based
Procedure: An exemplary pharmacokinetic parameter to aid in characterizing the properties of lipopeptide derivative compounds of the disclosure is post-antibiotic effect (PAE) of a lipopeptide derivative. For example, a bacterial culture with an initial count of 10^6 to 10^7 colony forming units per ml (CFU/ml) is treated with a certain concentration of lipopetide derivative for a certain time and a parallel (control) culture is left untreated. After treatment, the lipopetide derivative is removed from the culture (e.g., by dilution 1:1000 in fresh, lipopetide derivative-free medium), and the untreated culture is manipulated in the same way. Then the cultures are further incubated and monitored for bacterial growth over time. […] By way of background and not wishing to be bound by theory, a lipopeptide derivative having a measurable PAE activity will likely provide additional time for the host immune system to remove bacteria that might have survived antibiotic treatment and reproduced after the antibiotic is degraded, removed or filtered from the circulatory system. A longer PAE can influence the clinical outcome of antimicrobial therapy (i.e., a lower dose of a lipopetide derivative may be used to treat an infection or the frequency of a dosing regimen can be reduced).
After removal of the lipopeptide compounds, bacterial titre was determined each hour to monitor bacterial re-growth. The PAE duration is defined as the difference in time required for antimicrobial exposed bacterial cells versus unexposed bacterial cells to achieve an increase of 1 log10 unit in CFU/mL.

[7] = system: Streptococcus pneumoniae (SPN0002); assay: Lung infection model in neutropenic mice; assay type: in vivo
Procedure: Antimicrobial lipopeptide derivatives of the instant invention were tested for antimicrobial activity against Gram-positive bacteria in an intranasal (i.n.), immunocomprimised murine lung infection model (i.e., bacteria were innoculated i.n. and lipopeptide compounds were administered i.v.). Streptococcus pneumoniae (SPN0002) were grown on 5% sheep blood agar plates for 24 h at 37° C., harvested and then resuspended in 0.9% saline. A group of three to four Swiss CD1 mice were rendered neutropenic by administration of cyclophosphamide (Sigma Chemical Co.; 150 mg/kg, i.p.) on day −4 and −1 before infection. At time −18 to −24 hours, each mouse was infected i.n. dropwise via the nares with 50 μl of the prepared bacterial inoculum (i.e., a dose of about 5×10^6 CFU/mouse). At 18 to 24 hours post-infection, the groups of mice received i.v. (1) a lipopeptide derivative formulated in a 5% D-mannitol solution at a dose of about 1 mg/kg, 3 mg/kg, 10 mg/kg, or 30 mg/kg; (2) the 5% mannitol vehicle alone at a dose volume of 10 mL/kg; or (3) a known antibiotic, such as ampicillin, at a similar dose as the lipopeptide compounds. At 18 to 24 hours post-antibiotic treatment, mice were sacrificed and lungs harvested. Lungs were sampled by spreading homogenates on blood agar plates and incubating for 24 h at 37° C., and then counting the number of CFU. The EKill (killing effect; i.e., log10 CFU/lung reduction as compared to CFU count at intial treatment time) and the EMax (maximum reduction effect; i.e., log10 CFU/lung reduction as compared to CFU count of control at 24 hours) for each compound was calculated.

Compound | half-life [1] [h] | ED50 in Mice, S. aureus (SAU0017) [2] [mg/kg] | ED50 in Mice, S. pneumoniae (SPN0032) [3] [mg/kg] | MTD at 7 days [4] [mg/kg] | MIC [6] [µg/mL] | further results
CCCCCCCCCCCCCCC(=O)NC(CC(=O)O)C(=O)NC1C(=O)N2CCCCC2C(=O)NC(C(C)C(=O)O)C(=O)NC(CC(=O)O)C(=O)NCC(=O)NC(CC(=O)O)C(=O)NCC(=O)NC(C(C)NC(=O)CN)C(=O)NC(C(C)C)C(=O)N2CCCC2C(=O)NC1C (centres unmarked) [Compound 3, C15-Amphomycin-9-Gly] | 6.65 | 4.9 | 1.3 | 50 to 200 | – | –
CC(=O)Nc1ccc(C(=O)NC(CC(=O)O)C(=O)NC2C(=O)N3CCCCC3C(=O)NC(C(C)C(=O)O)C(=O)NC(CC(=O)O)C(=O)NCC(=O)NC(CC(=O)O)C(=O)NCC(=O)NC(C(C)N)C(=O)NC(C(C)C)C(=O)N3CCCC3C(=O)NC2C)cc1 (centres unmarked) [Compound 85, C2-PABA-Amphomycin] | 5.17 | 6.5 | – | 50 to 200 | 2 to 4 | ED50 in Mice, E. faecalis (EFS0040) [5]: 5.7 mg/kg
CCCCCCCCCCCC(=O)Nc1ccc(CCC(=O)NC(CC(=O)O)C(=O)NC2C(=O)N3CCCCC3C(=O)NC(C(C)C(=O)O)C(=O)NC(CC(=O)O)C(=O)NCC(=O)NC(CC(=O)O)C(=O)NCC(=O)NC(C(C)N)C(=O)NC(C(C)C)C(=O)N3CCCC3C(=O)NC2C)cc1 (stereo not drawn) [Compound 108, C12-(p-Aminophenylpropanoyl)-Amphomycin] (Lauroyl-[X2]D[ξAbu(βξ-NH2)][Pip][ξAsp(βξ-Me)]DGDG[ξAbu(3ξ-NH2)]VP; lactam 3-C; configuration not given here) | 4.55 | 6.5 | – | 50 to 200 | 0.5 | –
CCCCCCCCCCCC(=O)Nc1ccc(CC(=O)NC(CC(=O)O)C(=O)NC2C(=O)N3CCCCC3C(=O)NC(C(C)C(=O)O)C(=O)NC(CC(=O)O)C(=O)NCC(=O)NC(CC(=O)O)C(=O)NCC(=O)NC(C(C)N)C(=O)NC(C(C)C)C(=O)N3CCCC3C(=O)NC2C)cc1 (stereo not drawn) [Compound 119, C12-(p-Apa)-Amphomycin] (Lauroyl-[X1]D[ξAbu(βξ-NH2)][Pip][ξAsp(βξ-Me)]DGDG[ξAbu(3ξ-NH2)]VP; lactam 3-C; configuration not given here) | 4.22 | 7.6 | – | 50 to 200 | 0.25 | –
CCCCCCCCCCCCCCNC(=O)NC(CC(=O)O)C(=O)NC1C(=O)N2CCCCC2C(=O)NC(C(C)C(=O)O)C(=O)NC(CC(=O)O)C(=O)NCC(=O)NC(CC(=O)O)C(=O)NCC(=O)NC(C(C)NC(=O)CCN)C(=O)NC(C(C)C)C(=O)N2CCCC2C(=O)NC1C (stereo not drawn) [Compound 278, CH3—(CH2)13—NH—C(═O)-Amphomycin-9-(β-Ala)] | 7.45 | 7.1 | – | 200 to 400 | 0.5 | ED50 in Mice, E. faecalis (EFS0040) [5]: 5.3 mg/kg; half-life (in vivo): 7.08 h; MIC used for the PAE experiment (Staphylococcus aureus): 2 µg/mL; Post Antibiotic Effect (hours) 0.5 × MIC (Staphylococcus aureus; exposure one hour at 0.5 × MIC, S. aureus log phase): 1.5 h; Post Antibiotic Effect (hours) 1 × MIC (Staphylococcus aureus; exposure one hour at 1 × MIC): 2.6 h; Post Antibiotic Effect (hours) 2 × MIC (Staphylococcus aureus; exposure one hour at 2 × MIC): 2.2 h; Post Antibiotic Effect (hours) 4 × MIC (Staphylococcus aureus; exposure one hour at 4 × MIC): 3.2 h
CC1(C)S[C@@H]2[C@H](NC(=O)[C@H](N)c3ccccc3)C(=O)N2[C@H]1C(=O)O [ampicillin, reference compound] | – | – | – | – | – | ED50 ([5]; Enterococcus faecalis, read-out: ED50 in Mice, E. faecalis (EFS0040)): 4.2 mg/kg; EKill (log10 CFU/lung reduction versus count at initial treatment time) ([7]; 30 mg/kg i.v.): 1.8 log10 CFU/lung; log10 CFU/lung reduction (EMax, versus control at 24 hours) ([7]; highest dose level 30 mg/kg i.v.): 2.58 log10 CFU/lung
amphomycin [reference compound] | – | 5.4 | 2.0 | – | – | –
aspartocin [reference compound] | – | 5.4 | 0.65 | – | – | –
